Data published in patent publication US20050142192A1, “Oral administration of [2-(8,9-dioxo-2,6-diazabicyclo[5.2.0]non-1(7)-en-2-yl)alkyl] phosphonic acid and derivatives” (Wyeth, priority 2003, published 2005).
Like-named read-outs stand apart in the source and are kept apart here.

How the values were obtained:
[1] = ascending single-dose pharmacokinetic study in healthy subjects; format: in vivo, human; settings: for AUC: t = 0 to ∞; for CL/F: read-out: mean oral-dose clearance (C1/F) (converted)
Experimental: A study was conducted as an ascending single-dose tolerance study with fasting administration of 500, 1000, 2000, and 4000 mg oral doses. In each cohort, 8 subjects received either placebo (2 subjects) or the prescribed dose of 2-(8,9-dioxo-2,6-diazabicyclo[5.2.0]non-1(7)-en-2-yl)ethyl]phosphonic acid (6 subjects). Subjects in the fasting 1000-mg cohort were crossed over to receive a 1000-mg postprandial dose in study period 2. Additionally, the 2000-mg dose level was repeated in a cohort of elderly subjects.

[2] = ascending multiple-dose pharmacokinetic study in healthy subjects; format: in vivo; settings: human, plasma, po, mean ± SD; for half-life: read-out: T½ (converted)
Experimental: A study was conducted as an ascending multiple-dose tolerance study of 2-(8,9-dioxo-2,6-diazabicyclo[5.2.0]non-1(7)-en-2-yl)ethyl]phosphonic acid with administration of 200, 400, 800, and 1600 mg oral doses in healthy subjects over a 14-day period.

[3] = pH range of 4 to 8
[4] = ascending single-dose pharmacokinetic study in healthy subjects; format: in vivo; settings: human, plasma, intravenous, 100 mg, 100 mg 1-hour, infusion, mean ± SD
Caco-2 cell = Caco-2 cell permeability
[5] = apparent n-octanol/water partition coefficient
[6] = animal absorption study, oral bioavailability in rats; settings: rat, in vivo, 100 mg/kg
[7] = animal absorption study, oral bioavailability in monkeys; settings: monkey, in vivo, 100 mg/kg
[8] = 1000 mg, after standardized high-fat, high-calorie meal versus fasting
[9] = human, plasma, po, 500 mg, 500 mg Oral, fasting, single administration, healthy subjects, mean ± SD
[10] = human, plasma, po, 1000 mg, 1000 mg Oral, fasting, single administration, healthy subjects, mean ± SD
[11] = human, plasma, po, 1000 mg, 1000 mg Oral, fed (high-fat, high-calorie meal), single administration, healthy subjects, mean ± SD
[12] = human, plasma, po, 2000 mg, 2000 mg Oral, fasting (elderly), single administration, mean ± SD
[13] = human, plasma, po, 2000 mg, 2000 mg Oral, fasting, single administration, healthy adult subjects, mean ± SD
[14] = human, plasma, po, 4000 mg, 4000 mg Oral, fasting, single administration, healthy subjects, mean ± SD
[15] = 200 mg, Multiple dose administration (day 14), 200 mg q 12 h Oral, fed
[16] = 200 mg, Single dose administration, 200 mg Oral, fasting
[17] = 400 mg, Multiple dose administration (day 14), 400 mg q 12 h Oral, fasting
[18] = 400 mg, Single dose administration, 400 mg Oral, fasting
[19] = 800 mg, Multiple dose administration (day 14), 800 mg q 12 h Oral, fasting
[20] = 800 mg, Single dose administration, 800 mg Oral, fasting
[21] = 1600 mg, Multiple dose administration (day 14), 1600 mg q 12 h Oral, fasting
[22] = 1600 mg, Single dose administration, 1600 mg Oral, fasting

O=c1c2c(c1=O)N(CCP(=O)(O)O)CCCN2 [[2-(8,9-dioxo-2,6-diazabicyclo[5.2.0]non-1(7)-en-2-yl)ethyl]phosphonic acid]
lowering of mean Cmax by food [1, 8]: 67% | reduction of mean AUC by food [1, 8]: 57% | mean oral-dose clearance (C1/F), lower in elderly than in healthy adult subjects ([1]; 2000 mg, fasting, single-dose): approximately 10% | Tmax ([1]; human, plasma, intravenous, 100 mg, 100 mg 1-hour, infusion, healthy subjects, mean ± SD): 0.95 ± 0.11 h | half-life ([1]; human, plasma, intravenous, 100 mg, 100 mg 1-hour, infusion, healthy subjects, mean ± SD, read-out: T½ (converted)): 8.3 ± 8.8 h | Cmax [1, 9]: 320 ± 63 ng/mL | Tmax [1, 9]: 1.9 ± 0.7 h | half-life ([1]; human, plasma, po, 500 mg, 500 mg Oral, fasting, single administration, healthy subjects, mean ± SD, read-out: T½ (converted)): 6.7 ± 6.4 h | AUC [1, 9]: 2140 ± 542 ng·h/mL | Cmax [1, 10]: 1180 ng/mL | Tmax [1, 10]: 0.88 h | half-life ([1]; human, plasma, po, 1000 mg, 1000 mg Oral, fasting, single administration, healthy subjects, mean ± SD, read-out: T½ (converted)): 14.6 ± 9.3 h | AUC [1, 10]: 5130 ng·h/mL | Cmax [1, 11]: 392 ng/mL | Tmax [1, 11]: 2.92 h | half-life ([1]; human, plasma, po, 1000 mg, 1000 mg Oral, fed (high-fat, high-calorie meal), single administration, healthy subjects, mean ± SD, read-out: T½ (converted)): 16 ± 10 h | AUC [1, 11]: 2210 ng·h/mL | Cmax [1, 12]: 1610 ± 628 ng/mL | Tmax [1, 12]: 1.25 ± 0.61 h | half-life ([1]; human, plasma, po, 2000 mg, 2000 mg Oral, fasting (elderly), single administration, mean ± SD, read-out: T½ (converted)): 14.1 ± 11.1 h | AUC [1, 12]: 8890 ng·h/mL | Cmax [1, 13]: 1790 ± 1360 ng/mL | Tmax [1, 13]: 1.42 ± 0.96 h | half-life ([1]; human, plasma, po, 2000 mg, 2000 mg Oral, fasting, single administration, healthy adult subjects, mean ± SD, read-out: T½ (converted)): 6.4 ± 2 h | AUC [1, 13]: 7640 ng·h/mL | CL/F ([1]; human, plasma, po, 2000 mg, elderly subjects, 2000 mg, fasting, single-dose): 52.3 mL/min/kg | CL/F ([1]; human, plasma, po, 2000 mg, healthy adult subjects, 2000 mg, fasting, single-dose): 58.3 mL/min/kg | Cmax [1, 14]: 1490 ± 436 ng/mL | Tmax [1, 14]: 2.6 ± 1.08 h | half-life ([1]; human, plasma, po, 4000 mg, 4000 mg Oral, fasting, single administration, healthy subjects, mean ± SD, read-out: T½ (converted)): 9.1 ± 4.6 h | AUC [1, 14]: 8980 ± 1980 ng·h/mL | half-life ([1]; human, plasma, po, all cohorts, oral, fasting, estimates not always reliable, read-out: mean t1/2): 6 to 16 h | bioavailability ([1]; human, plasma, subjects in the first cohort (500 mg oral, 100 mg infusion), read-out: mean absolute bioavailability): 4.3% | Cmax [2, 15]: 153 ± 75 ng/mL | Tmax [2, 15]: 1.2 ± 0.3 h | half-life [2, 15]: 6.6 ± 3.9 h | AUC ([2]; 200 mg, Multiple dose administration (day 14), 200 mg q 12 h Oral, fed, t = 0 to 12 hours (tau)): 817 ± 265 ng·h/mL | Cmax [2, 16]: 172 ± 90 ng/mL | Tmax [2, 16]: 1.3 ± 0.5 h | half-life [2, 16]: 3.5 ± 0.6 h | AUC ([2]; 200 mg, Single dose administration, 200 mg Oral, fasting, t = 0 to ∞): 699 ± 201 ng·h/mL | Cmax [2, 17]: 398 ± 209 ng/mL | Tmax [2, 17]: 1.6 ± 1.3 h | half-life [2, 17]: 11.9 ± 10.4 h | AUC ([2]; 400 mg, Multiple dose administration (day 14), 400 mg q 12 h Oral, fasting, t = 0 to 12 hours (tau)): 1810 ± 747 ng·h/mL | Cmax [2, 18]: 346 ± 282 ng/mL | Tmax [2, 18]: 2 ± 1.6 h | half-life [2, 18]: 4.5 ± 1.2 h | AUC ([2]; 400 mg, Single dose administration, 400 mg Oral, fasting, t = 0 to ∞): 1490 ± 371 ng·h/mL | Cmax [2, 19]: 436 ± 151 ng/mL | Tmax [2, 19]: 1.4 ± 0.6 h | half-life [2, 19]: 16.9 ± 8.8 h | AUC ([2]; 800 mg, Multiple dose administration (day 14), 800 mg q 12 h Oral, fasting, t = 0 to 12 hours (tau)): 2180 ± 644 ng·h/mL | Cmax [2, 20]: 715 ± 524 ng/mL | Tmax [2, 20]: 1.4 ± 0.7 h | half-life [2, 20]: 8.3 ± 1.3 h | AUC ([2]; 800 mg, Single dose administration, 800 mg Oral, fasting, t = 0 to ∞): 3190 ± 800 ng·h/mL | Cmax [2, 21]: 1510 ± 842 ng/mL | Tmax [2, 21]: 1.4 ± 1.3 h | half-life [2, 21]: 10.5 ± 6.6 h | AUC ([2]; 1600 mg, Multiple dose administration (day 14), 1600 mg q 12 h Oral, fasting, t = 0 to 12 hours (tau)): 4910 ± 1210 ng·h/mL | Cmax [2, 22]: 962 ± 592 ng/mL | Tmax [2, 22]: 1.3 ± 1.3 h | half-life [2, 22]: 6.9 ± 1.7 h | AUC ([2]; 1600 mg, Single dose administration, 1600 mg Oral, fasting, t = 0 to ∞): 4060 ± 1320 ng·h/mL | solubility [3]: very soluble | Cmax [4]: 4010 ± 512 ng/mL | AUC ([4]; t = 0 to ∞): 10200 ± 1720 ng·h/mL | Caco-2 cell permeability (Caco-2 cell): poor | logP [5]: -1.37 | bioavailability [6]: ~1% | bioavailability [7]: ~2.5%
